This passage reports EC50, IC50 and Ki results from ChEMBL document CHEMBL5108026, “An overview on Estrogen receptors signaling and its ligands in breast cancer” (Eur J Med Chem, 2022).

For orientation: pEC50 means the negative decadic logarithm of the EC50, by convention in mol/L. As a reminder, the pIC50 is the IC50 on a negative log10 scale, so that one unit is a factor of ten. What is called pKi is the negative decadic logarithm of the Ki, by convention in mol/L.

SMILES strings stand for the structures. pEC50, pIC50, pKi: −log10 of the molar value.

For experiment [1], the target named is T1, Estrogen receptor beta (Homo sapiens, UniProt Q92731). In words: Agonist activity at human ER-beta transfected in African green monkey COS-7 cells measured after 24 hrs by Steady-Glo luciferase assay. It counts as cell-based.
T1 sequence (Q92731 whole entry): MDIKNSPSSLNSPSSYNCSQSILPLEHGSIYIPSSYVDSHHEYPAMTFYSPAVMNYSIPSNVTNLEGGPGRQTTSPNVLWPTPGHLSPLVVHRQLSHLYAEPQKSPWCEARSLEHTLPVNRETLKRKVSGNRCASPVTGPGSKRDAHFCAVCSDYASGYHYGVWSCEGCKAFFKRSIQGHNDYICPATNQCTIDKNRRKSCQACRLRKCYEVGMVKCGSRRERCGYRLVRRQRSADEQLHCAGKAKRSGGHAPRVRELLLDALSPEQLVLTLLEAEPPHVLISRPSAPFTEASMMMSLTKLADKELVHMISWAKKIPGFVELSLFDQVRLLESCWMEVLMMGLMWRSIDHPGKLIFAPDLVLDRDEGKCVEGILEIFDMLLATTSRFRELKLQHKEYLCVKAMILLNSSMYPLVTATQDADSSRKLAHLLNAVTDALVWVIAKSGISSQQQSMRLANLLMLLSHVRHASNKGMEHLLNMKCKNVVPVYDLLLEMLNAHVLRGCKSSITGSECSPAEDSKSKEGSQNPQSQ
Experiment [2] concerns the target T1, Estrogen receptor beta. The experiment in a line: Displacement of EL red from human full-length ER-beta expressed in baculovirus expression system incubated for 2 hrs by fluorescence polarization assay.
The target in a further experiment is T2, Estrogen receptor (Homo sapiens, UniProt P03372).
T2 sequence (P03372 whole entry): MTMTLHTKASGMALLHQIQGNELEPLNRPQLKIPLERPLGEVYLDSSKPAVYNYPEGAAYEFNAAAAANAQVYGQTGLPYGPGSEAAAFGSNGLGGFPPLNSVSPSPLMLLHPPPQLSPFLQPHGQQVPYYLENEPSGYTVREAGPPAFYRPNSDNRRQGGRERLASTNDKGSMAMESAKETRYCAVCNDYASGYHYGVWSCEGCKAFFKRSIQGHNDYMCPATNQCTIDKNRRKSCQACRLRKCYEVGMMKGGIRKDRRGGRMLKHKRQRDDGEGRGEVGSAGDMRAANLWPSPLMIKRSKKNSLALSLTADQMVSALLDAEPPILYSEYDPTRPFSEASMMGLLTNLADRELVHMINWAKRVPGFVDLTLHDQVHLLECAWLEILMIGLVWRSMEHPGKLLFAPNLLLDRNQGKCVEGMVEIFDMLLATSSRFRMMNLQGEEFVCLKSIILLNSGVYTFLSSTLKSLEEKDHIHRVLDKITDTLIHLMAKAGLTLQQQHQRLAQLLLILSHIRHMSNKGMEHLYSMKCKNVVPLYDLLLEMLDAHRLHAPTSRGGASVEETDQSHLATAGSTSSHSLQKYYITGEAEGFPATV
In words: Modulation of ER-alpha (unknown origin).

The target of experiment [3] is T1, Estrogen receptor beta. In words: Modulation of ER-beta (unknown origin).
A further experiment concerns MCF7. In words: Antiproliferative activity against human MCF7 cells assessed as inhibition of cell growth. It counts as functional, cell-based.
A further experiment concerns the target T3, Aromatase (Rattus norvegicus, UniProt P22443).
T3 sequence (P22443 whole entry): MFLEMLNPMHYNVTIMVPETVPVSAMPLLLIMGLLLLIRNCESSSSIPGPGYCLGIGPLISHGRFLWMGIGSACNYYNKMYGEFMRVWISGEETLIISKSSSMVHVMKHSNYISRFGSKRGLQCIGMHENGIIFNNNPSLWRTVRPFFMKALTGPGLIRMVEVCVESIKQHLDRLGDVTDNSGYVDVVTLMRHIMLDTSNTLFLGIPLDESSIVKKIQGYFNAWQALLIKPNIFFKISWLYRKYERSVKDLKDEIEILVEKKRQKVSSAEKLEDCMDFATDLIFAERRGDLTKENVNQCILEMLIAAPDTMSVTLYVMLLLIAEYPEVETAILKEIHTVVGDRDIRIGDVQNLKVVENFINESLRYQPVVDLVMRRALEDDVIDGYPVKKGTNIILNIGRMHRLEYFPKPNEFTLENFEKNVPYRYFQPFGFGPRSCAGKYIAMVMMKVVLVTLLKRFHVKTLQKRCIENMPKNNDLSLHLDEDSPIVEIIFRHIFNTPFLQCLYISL
In words: Inhibition of aromatase in rat mammary tumor. The experiment is classed as tissue-based, Mammary gland.

`CCOC(=O)C1(C(C)=O)Cc2ccc([C@]3(O)CC[C@H]4[C@@H]5CCc6cc(O)ccc6[C@H]5CC[C@@]43C)cc2C1` (stereo partly specified) had a pEC50 on Estrogen receptor beta [1] of 8.74.

The compound `Oc1ccc([C@H]2COc3cc(O)ccc3C2)cc1` [AUS-131] gave a pIC50 on Estrogen receptor beta [2] of 5.25.

Consider `C[C@]12CC[C@@H]3c4ccc(O)cc4CC[C@H]3[C@@H]1C[C@H]1OC(=O)C[C@]12O`, for which the pEC50 on Estrogen receptor was 10.85; at Estrogen receptor beta [3], 7.64.

With `C[C@]12CC[C@@H]3c4ccc(O)cc4C[C@@H](CCCCCCCCC[S+]([O-])CCCC(F)(F)C(F)(F)F)[C@H]3[C@@H]1CC[C@@H]2O` (stereo partly specified) [FULVESTRANT], the pIC50 with MCF7 was 9.54.

In turn, `C[C@]12C=CC(=O)C=C1C[C@@H](Sc1ccc(N)cc1)[C@@H]1[C@@H]2CC[C@]2(C)C(=O)CC[C@@H]12` had a pKi on Aromatase of 7.74.
